Laboratory results published in patent publication US20140011773A1, “Pro-drug Compounds” (Proximagen Limited, priority 2012, published 2014).
Where a name gives a salt, the structure may show the parent alone. Read-outs that look alike come from different tables or passages of the source.

Tests used:
[1] = Pharmacokinetics: plasma levels after intravenous dosing to rats; format: in vivo; conditions: male, Sprague Dawley, rat, 0.95 mg/kg IV, read-out: Plasma level of Example 2
Method: (§1) Example prodrugs were dosed either intravenously or orally to fasted male Sprague Dawley rats. The rats underwent surgery for jugular vein cannulation 48 hrs prior to dosing. Following dosing, 0.25 mL blood samples were taken via the cannulae at 0, 5, 10, 20, 30, 45, 60, 120, 240 & 360 minutes in EDTA coated tubes. Tubes were spun at 13,000 rpm for 4 minutes and 100 ul of supernatant taken immediately and stored at −80° C. prior to analysis. Plasma samples were analysed by LC-MS/MS following extraction by protein precipitation, and levels of parent prodrug and tonabersat were measured by MRM (Multiple Reaction Monitoring) analysis against an extracted calibration curve of plasma samples spiked with the Example prodrug and tonabersat.
Example 2 was dosed according to this protocol at 0.95 mg/kg IV. […] Plasma levels of tonabersat were determined to be 130 ng/mL at 5 min and 115 ng/mL at 6 hrs clearly showing conversion of the prodrug to tonabersat over this timecourse following intravenous dosing.

[2] = Pharmacokinetics: plasma levels after oral dosing to rats; format: in vivo; conditions: male, Sprague Dawley, 6.1 mg/kg, rat, 6.10 mg/kg PO, read-out: Plasma level of Example 2
Method: as §1
Example 2 was dosed according to this protocol at 6.10 mg/kg PO. […] Plasma levels of tonabersat were determined to be 63 ng/mL at 5 min and 900 ng/mL at 6 hrs clearly showing conversion of the prodrug to tonabersat over this timecourse following oral dosing.

[3] = tested on: high K+ evoked CSD; conditions: cats; cited from earlier work
[4] = tested on: high K+ evoked CSD; conditions: rats; cited from earlier work
[5] = tested on: unique stereo-selective site in human brains; conditions: human brain; cited from earlier work
[6] = tested on: unique stereo-selective site in rat brains; conditions: rat brain; cited from earlier work

concentration at 5 min ([1]; at 5 min) [µg/mL]	concentration at 6 h ([1]; at 6 hrs) [µg/mL]	concentration at 5 min ([2]; at 5 min) [µg/mL]	concentration at 6 h ([2]; at 6 hrs) [µg/mL]	SMILES	inhibition of high K+ evoked CSD [3]	inhibition of high K+ evoked CSD [4]	binding affinity [5]	binding affinity [6]
0.73	< 0.005	0.038	< 0.005	CC(=O)c1ccc2c(c1)[C@H](NC(=O)c1ccc(F)c(Cl)c1)[C@H](OC(=O)CN(C)C)C(C)(C)O2 [Example 2, (3S,4S)-6-Acetyl-4-[(3-chloro-4-fluorobenzene)amido]-2,2-dimethyl-3,4-dihydro-2H-1-benzopyran-3-yl 2-(dimethylamino)acetate hydrochloride]	–	–	–	–
–	–	–	–	CC(=O)c1ccc2c(c1)[C@H](NC(=O)c1ccc(F)c(Cl)c1)[C@H](O)C(C)(C)O2 [Tonabersat]	inhibits high K+ evoked CSD	inhibits high K+ evoked CSD	binds selectively and with high affinity	binds selectively and with high affinity
